Data on five molecules can be found in US10358672B2, “7-β-hydroxysteroid dehydrogenase mutants and process for the preparation of ursodeoxycholic acid” (Pharmazell GmbH, priority 2014, dated 2019).

For data set [1], the system named is Collinsella aerofaciens DSM 3979 (ATCC 25986) 7β-HSDH, wild type, SEQ ID NO:2. The conditions noted are these: cited from earlier work.
In data set [2] the target is 7β-HSDH obtainable from Collinsella aerofaciens DSM 3979 (Collinsella aerofaciens, UniProt A4ECA9). The conditions noted are these: cited from earlier work.
Data set [3] deals with T1, Collinsella aerofaciens 7β-HSDH dual mutant [G39S/R64E], with His tag, SEQ ID NO:6 (Collinsella aerofaciens, UniProt A4ECA9, G39S/R64E).
T1 sequence (A4ECA9 with tags, fused parts or gaps G39S/R64E): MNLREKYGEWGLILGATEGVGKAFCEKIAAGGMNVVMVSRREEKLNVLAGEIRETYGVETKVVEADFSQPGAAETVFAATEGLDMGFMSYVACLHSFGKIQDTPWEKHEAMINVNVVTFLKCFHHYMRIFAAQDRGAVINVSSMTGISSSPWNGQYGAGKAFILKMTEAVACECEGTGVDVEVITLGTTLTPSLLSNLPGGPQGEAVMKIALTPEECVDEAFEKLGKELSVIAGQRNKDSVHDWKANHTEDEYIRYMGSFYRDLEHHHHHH
Description: Michaelis-Menten kinetics, purified 7β-HSDH [G39S/R64E].

Data set [4] concerns the target T2, Collinsella aerofaciens 7β-HSDH mutant [G39S], with His tag, SEQ ID NO:5 (Collinsella aerofaciens, UniProt A4ECA9, G39S).
T2 sequence (A4ECA9 with tags, fused parts or gaps G39S): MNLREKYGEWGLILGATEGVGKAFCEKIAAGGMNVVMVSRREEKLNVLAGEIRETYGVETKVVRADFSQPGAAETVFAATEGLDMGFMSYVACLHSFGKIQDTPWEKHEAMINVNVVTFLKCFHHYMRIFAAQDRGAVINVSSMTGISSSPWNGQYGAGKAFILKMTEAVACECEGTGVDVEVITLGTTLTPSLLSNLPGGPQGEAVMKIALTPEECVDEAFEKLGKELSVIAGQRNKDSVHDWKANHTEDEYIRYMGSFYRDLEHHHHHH
Description: Michaelis-Menten kinetics, purified 7β-HSDH [G39S]. The conditions noted are these: in comparison with the wild type.
Description: The kinetic parameter constants vmax and KM were determined with purified enzyme.

Data set [5] addresses Collinsella aerofaciens 7β-HSDH mutant [T17F] (Collinsella aerofaciens, UniProt A4ECA9, T17F). It is filed as biochemical. The conditions noted are these: in comparison with the wild type.
The target of data set [6] is T3, Collinsella aerofaciens 7β-HSDH mutant [R64E], with His tag, SEQ ID NO:4 (Collinsella aerofaciens, UniProt A4ECA9, R64E).
T3 sequence (A4ECA9 with tags, fused parts or gaps R64E): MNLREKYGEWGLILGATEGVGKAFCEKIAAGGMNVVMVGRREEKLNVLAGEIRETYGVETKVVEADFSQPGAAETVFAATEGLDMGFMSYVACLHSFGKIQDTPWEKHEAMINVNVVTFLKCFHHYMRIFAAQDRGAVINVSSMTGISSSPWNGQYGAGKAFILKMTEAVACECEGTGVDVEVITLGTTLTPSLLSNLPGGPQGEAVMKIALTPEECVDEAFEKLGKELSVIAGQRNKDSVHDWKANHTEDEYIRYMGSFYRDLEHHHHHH
Description: Michaelis-Menten kinetics, purified 7β-HSDH [R64E]. The conditions noted are these: in comparison with the wild type.
Description: In this manner, all the enzymes have been isolated and characterized.
The His-tag allows for very simple purification of the HSDH protein since this sequence is bound with high specificity by specific chromatographic material (NTA (Ninitrilotriacetate)-modified support material, loaded with divalent nickel ions, for example “His Pur Ni-NTA” (Nimagen B. V., Nijmegen, The Netherlands)). To this end, the cell-free crude extract is applied to a dropping column comprising this material, which dropping column has previously been equilibrated with the disruption buffer (3 to 5 column volumes). Weakly binding protein was removed by washing with 3 to 5 column volumes of wash buffer (20 mM imidazole, 50 mM sodium phosphate, 300 mM NaCl, pH 8). […] The process was carried out at room temperature. The imidazole which was present was to be removed by buffer exchange.

Data set [7] is described as follows: Cofactor specificity of 7β-HSDH types (compilation of improvements). The format is biochemical.
The nature of data set [8]: Photometric activity determination of 7β-HSDH and mutants (decrease in absorbance at 340 nm, DHCA reduction with NADPH). It is filed as biochemical. Here is the method:
The activity of the 7β-HSDH and of the mutants was determined using a photometric assay, where the decrease in absorbance was measured at 340 nm over a period of 30 seconds.
The expression [R64E] in the first column of the table means that the arginine (R) in position 64 of the protein sequence had been replaced by glutamic acid (E) in the mutant in question. The respective amino acid is abbreviated using the international one-letter code. Analogously, [R64D] means that an aspartic acid has been introduced at this position.

Substrate in data set [9]: C[C@H](CCC(=O)O)[C@H]1CC[C@H]2[C@@H]3C(=O)C[C@@H]4CC(=O)CC[C@]4(C)[C@H]3CC(=O)[C@]12C
Description: purified protein, by the assay type. The conditions noted are these: other: purified enzyme, 340 nm, 50 mM KPi pH 8.0, substrate DHCA / cofactor NADPH.

Substrate in data set [10]: NC(=O)C1=CN([C@@H]2O[C@H](COP(=O)(O)OP(=O)(O)OC[C@H]3O[C@@H](n4cnc5c(N)ncnc54)[C@H](OP(=O)(O)O)[C@@H]3O)[C@@H](O)[C@H]2O)C=CC1
Description: purified protein, by the assay type. The conditions noted are these: other: purified enzyme, 340 nm, 50 mM KPi pH 8.0, substrate DHCA / cofactor NADPH.

Where [11] appears, read: Table 9, variants modified at position 17.
Setting [12] is: Table 10, dual mutant versus wild type.

A word on the Km: it is the substrate concentration at which the rate is half of its maximum.

Sequence of Collinsella aerofaciens 7β-HSDH mutant [T17F] (A4ECA9 1-263 with tags or gaps T17F): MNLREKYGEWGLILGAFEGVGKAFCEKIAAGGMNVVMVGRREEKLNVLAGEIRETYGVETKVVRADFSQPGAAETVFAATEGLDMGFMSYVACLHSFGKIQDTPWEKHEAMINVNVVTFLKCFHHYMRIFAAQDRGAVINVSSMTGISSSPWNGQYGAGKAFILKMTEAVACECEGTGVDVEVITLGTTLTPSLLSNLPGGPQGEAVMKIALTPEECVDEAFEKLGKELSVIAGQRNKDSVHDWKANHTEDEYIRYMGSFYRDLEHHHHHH

In the case of `NC(=O)c1ccc[n+]([C@@H]2O[C@H](COP(=O)([O-])OP(=O)(O)OC[C@H]3O[C@@H](n4cnc5c(N)ncnc54)[C@H](OP(=O)(O)O)[C@@H]3O)[C@@H](O)[C@H]2O)c1` [NADP^+], in data set [1], the kcat is on record as 944.95. Besides, in data set [2], the Vmax is given as 30.58 U/mg Protein and the kcat is on record as 944.95.

As to `C[C@H](CCC(=O)O)[C@H]1CC[C@H]2[C@@H]3C(=O)C[C@@H]4CC(=O)CC[C@]4(C)[C@H]3CC(=O)[C@]12C` [DHCA, dehydrocholic acid], the kcat in data set [2] is given as 875.35. Moreover, the “Vmax (DHCA), improvement” value in data set [3] (in comparison with the wild type) is listed as “+7-fold better”; in data set [4], “+6-fold better”; in data set [5] it was “+5-fold better”; in [6], “+5-fold better”. Also, the substrate inhibition entry in data set [3] (in words, course of kinetics in FIG. 6) is given as “no longer demonstrates a substrate inhibition”. Further, the “Substrate inhibition Ki” value was “++eliminated” in data set [3] (in words, in comparison with the wild type); “+reduced” in data set [4] (in words); “+reduced” in data set [6] (in words).

B1: 7β-HSDH [T17F]: 7β-HSDH mutant, threonine at position 17 replaced by F (protein, UniProt A4ECA9 1-263, looked up, variant T17F)
7beta-hydroxysteroid …: MNLREKYGEWGLILGAFEGVGKAFCEKIAAGGMNVVMVGRREEKLNVLAGEIRETYGVETKVVRADFSQPGAAETVFAATEGLDMGFMSYVACLHSFGKIQDTPWEKHEAMINVNVVTFLKCFHHYMRIFAAQDRGAVINVSSMTGISSSPWNGQYGAGKAFILKMTEAVACECEGTGVDVEVITLGTTLTPSLLSNLPGGPQGEAVMKIALTPEECVDEAFEKLGKELSVIAGQRNKDSVHDWKANHTEDEYIRYMGSFYRD
With B1, the Cofactor specificity result in data set [7] is given as “NADPH/low”. Besides, in data set [8] (setting [11]), the Specific activity came out at 46.1 U/mg and the Volumetric activity stood at 645.2 U/ml.

B2: Collinsella aerofaciens 7β-HSDH (WT), with C-terminal His tag, SEQ ID NO:3 (Collinsella aerofaciens ATCC 25986) (protein)
chain: MNLREKYGEWGLILGATEGVGKAFCEKIAAGGMNVVMVGRREEKLNVLAGEIRETYGVETKVVRADFSQPGAAETVFAATEGLDMGFMSYVACLHSFGKIQDTPWEKHEAMINVNVVTFLKCFHHYMRIFAAQDRGAVINVSSMTGISSSPWNGQYGAGKAFILKMTEAVACECEGTGVDVEVITLGTTLTPSLLSNLPGGPQGEAVMKIALTPEECVDEAFEKLGKELSVIAGQRNKDSVHDWKANHTEDEYIRYMGSFYRDLEHHHHHH
In the case of B2, the Km came to 20.5 ± 2.9 µM in data set [9] and 15.2 ± 2.2 µM in data set [10]. Also, the results for the Vmax in data set [9] and in data set [10] were 8.7 µmol/min/mg and 8.8 µmol/min/mg, respectively.

B3: 7β-HSDH [G39S/R64E]: 7β-HSDH dual mutant, positions 39 ([G39S]) and 64 ([R64E]) modified at the same time; His tag, SEQ ID NO:6 (protein)
chain: MNLREKYGEWGLILGATEGVGKAFCEKIAAGGMNVVMVSRREEKLNVLAGEIRETYGVETKVVRADFSQPGAAETVFAATEGLDMGFMSYVACLHSFGKIQDTPWEKHEAMINVNVVTFLKCFHHYMRIFAAQDRGAVINVSSMTGISSSPWNGQYGAGKAFILKMTEAVACECEGTGVDVEVITLGTTLTPSLLSNLPGGPQGEAVMKIALTPEECVDEAFEKLGKELSVIAGQRNKDSVHDWKANHTEDEYIRYMGSFYRDLEHHHHHH
modifications: His tag; 7-beta-HSDH G39S/R64E Mutant
In the case of B3, in data set [7], the Cofactor specificity result is given as “NADPH”. In [8] (setting [12]), this molecule showed a Specific activity of 57.5 U/mg and a Volumetric activity of 1115.0 U/ml.
